Assay type in all cases: cell-based, mouse
Assay [1] relates to mCEC. In words: Scratch wound assay of mCECs treated with recombinant cytokines. The note with it: recombinant proteins, FIG. 4A, 4B. As for the experimental part:
(§1) Recombinant pro-IL-1β and pro-IL-18 proteins were generated from E. coli. The proteins were treated with caspase 1 to obtain the active forms.
The coding sequences of human pro-IL-18 and pro-IL-1β were cloned into the PET28a vector, where an N-terminal 6xHis tag is added. The purification procedure is similar to the published protocol with minor modifications (Ramirez, et al. J Biol Chem. 2018 293(18): 7058-7067). Briefly, the respective plasmid was transformed into BL21 […] chemically competent cells. A single colony was picked to grow in LB media at 37° C. until OD600 researched 0.6, and 0.5 mM IPTG was used for overnight induction at ˜16° C. Harvested cells were collected by centrifugation, followed by resuspension in 50 mM Hepes (pH 7.5), 5 mM MgCl2, 1 mM PMSF, ˜0.5 mg/ml lysozyme and 50-100 U DNase I. After sonication, the cell lysates were centrifuged. The supernatant was then applied to a Ni-NTA affinity chromatography, where buffer A contained 50 mM Hepes (pH 7.5) and Buffer B contained an extra 500 mM imidazole. Fractions with the highest purities were pooled and applied to a diethylaminoethyl-cellulos (DEAE) ion exchange chromatography, where buffer A′ contained 50 mM Hepes (pH 7.5) and Buffer B′ contained an extra 500 mM NaCl. As judged by SDS PAGE, fractions with >95% purity were pooled and dialyzed in 50 mM Hepes (pH 7.5) and 100 mM NaCl.
Recombinant human caspase-1 was purchased from Enzo Life Sciences (ALX-201-056). The cleavage of pro-IL-18 or pro-IL-1β was performed at 37° C. in PBS buffer containing 2 mM DTT.
To induce cellular migration, an in vitro scratch test was performed using mCECs. Cells were treated with dissected corneas or cytokines when they reached confluence, were subsequently scratched with a micropipette tip, and incubated for up to 12 hrs. Images were taken at 0, 3, 6, and 9 hours after the initial scratch. Images of wound closure were quantified by using ImageJ software.

Assay [2] relates to mCEC. In words: Transepithelial electrical resistance (TEER) of mCEC treated with recombinant proteins. The note with it: FIG. 4C. Here is the method: as §1
mCEC were seeded in transwell inserts (2×10^5 per well) and allowed to become confluent. For the protein treatment, proteins were added into the culture medium 16 or 4 hours before measurement; the EVOM2 instrument was used to measure the TEER. For the co-culture experiments, mCEC were seeded in the transwell inserts and allowed to become confluent. The isolated primary neutrophils were then seeded into 24 well plates and the EVOM2 instrument was used to measure the TEER at 24 hr.

A further assay concerns corneal epithelial cells. In words: ZO-1 staining of corneal epithelial cells treated with recombinant proteins. The note with it: FIG. 4D, 4E. Here is the method: as §1

For the substance “active IL-1β: recombinant human pro-IL-1β from E. coli treated with caspase 1 to obtain the active form”, the “mCEC wound closure / migration” value in the assay on mCEC [1] is given as “significantly delayed mCEC wound closure”; with mCEC [1] (listed as activated IL-1β), “significantly suppress corneal epithelial cell migration”. For the same substance, the “epithelial tight junctions / electrical resistance by TEER” value with mCEC [2] is “disrupted epithelial cell tight junctions”; in the assay with mCEC [2] (listed as activated IL-1β) it was “significantly reduce the electrical resistance”. Moreover, the entries for the “tight junctions by ZO-1 staining” value in the assay with corneal epithelial cells and in the assay on corneal epithelial cells (listed as activated IL-1β) were “disrupted epithelial cell tight junctions” and “tight junction was disrupted”, respectively.

For “pro-IL-18: recombinant pro-IL-18 protein generated from E. coli, used as control”, in the assay with mCEC [1], the “mCEC wound closure / migration” value is “failed to alter mCEC migration”.

Take “pro-IL-1β: recombinant pro-IL-1β protein generated from E. coli, used as control”: in the assay on mCEC [1], the “mCEC wound closure / migration” value is reported as “failed to alter mCEC migration”.

For “boiled IL-1β: boiled recombinant IL-1β protein used as control”, the “mCEC wound closure / migration” value with mCEC [1] is listed as “failed to alter mCEC migration”.

In the case of “boiled IL-18: boiled recombinant IL-18 protein used as control”, the “mCEC wound closure / migration” value with mCEC [1] is on record as “failed to alter mCEC migration”.

As to “active IL-18: recombinant human pro-IL-18 from E. coli treated with caspase 1 to obtain the active form”, the entries for the “mCEC wound closure / migration” value with mCEC [1] and in the assay with mCEC [1] (listed as activated IL-18) were “significantly delayed mCEC wound closure” and “significantly suppress corneal epithelial cell migration”, respectively. In addition, the “epithelial tight junctions / electrical resistance by TEER” value with mCEC [2] is on record as “disrupted epithelial cell tight junctions”; in the assay with mCEC [2] (listed as activated IL-18) it was “significantly reduce the electrical resistance”. Moreover, the “tight junctions by ZO-1 staining” value with corneal epithelial cells is recorded as “disrupted epithelial cell tight junctions”; in the assay with corneal epithelial cells (listed as activated IL-18), “tight junction was disrupted”.

The values above are taken from patent US20240122879A1, “COMPOSITIONS AND METHODS FOR TREATING OCULAR CHEMICAL BURNS” (OHIO STATE INNOVATION FOUNDATION, priority 2022, published 2024).
